Values of other authors as cited in patent publication US7928112B2, “Substituted 5,6,7,8-tetrahydropyrido[4,3-D]pyrimidines as dipeptidyl peptidase-IV inhibitors for the treatment or prevention of diabetes” (Merck Sharp & Dohme Corp., priority 2006, dated 2011).

Key:
[1] = molecular target: T1, DPP-4 (Rattus norvegicus, UniProt P14740); settings: rats; survival doubled from day 7 to day 14
T1 construct: host or cells: rats (in vivo)

[2] = molecular target: T2, DPP-4 (Mus musculus, UniProt P28843); settings: cyclophosphamide-induced neutropenia
T2 construct: host or cells: mouse (in vivo)

[3] = molecular target: T3, DPP-4 (Homo sapiens, UniProt P27487)
T3 construct: GRF is rapidly degraded in plasma to GRF[3-44]; from tissue; host or cells: plasma
T3 sequence (P27487 39-766 limits assumed, species assumed): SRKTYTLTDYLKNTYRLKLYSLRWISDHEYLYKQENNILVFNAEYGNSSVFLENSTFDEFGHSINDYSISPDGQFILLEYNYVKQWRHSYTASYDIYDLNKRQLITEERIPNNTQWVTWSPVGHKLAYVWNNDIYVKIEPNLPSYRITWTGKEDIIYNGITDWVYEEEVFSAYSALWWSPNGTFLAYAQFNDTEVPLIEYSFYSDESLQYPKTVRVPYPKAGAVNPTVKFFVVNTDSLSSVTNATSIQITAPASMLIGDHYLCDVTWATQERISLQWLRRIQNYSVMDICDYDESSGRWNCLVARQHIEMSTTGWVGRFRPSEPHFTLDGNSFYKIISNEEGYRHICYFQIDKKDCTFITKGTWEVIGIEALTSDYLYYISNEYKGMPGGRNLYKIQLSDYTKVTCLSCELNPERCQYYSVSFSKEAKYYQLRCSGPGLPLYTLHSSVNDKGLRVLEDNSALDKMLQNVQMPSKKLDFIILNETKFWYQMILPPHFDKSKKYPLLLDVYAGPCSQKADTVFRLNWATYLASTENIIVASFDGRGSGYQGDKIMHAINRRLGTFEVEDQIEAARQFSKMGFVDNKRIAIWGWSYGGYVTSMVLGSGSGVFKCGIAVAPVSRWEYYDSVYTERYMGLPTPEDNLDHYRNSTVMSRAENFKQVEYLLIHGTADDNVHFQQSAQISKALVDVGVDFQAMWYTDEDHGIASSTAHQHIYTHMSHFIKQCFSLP

T1 sequence (P14740 whole entry): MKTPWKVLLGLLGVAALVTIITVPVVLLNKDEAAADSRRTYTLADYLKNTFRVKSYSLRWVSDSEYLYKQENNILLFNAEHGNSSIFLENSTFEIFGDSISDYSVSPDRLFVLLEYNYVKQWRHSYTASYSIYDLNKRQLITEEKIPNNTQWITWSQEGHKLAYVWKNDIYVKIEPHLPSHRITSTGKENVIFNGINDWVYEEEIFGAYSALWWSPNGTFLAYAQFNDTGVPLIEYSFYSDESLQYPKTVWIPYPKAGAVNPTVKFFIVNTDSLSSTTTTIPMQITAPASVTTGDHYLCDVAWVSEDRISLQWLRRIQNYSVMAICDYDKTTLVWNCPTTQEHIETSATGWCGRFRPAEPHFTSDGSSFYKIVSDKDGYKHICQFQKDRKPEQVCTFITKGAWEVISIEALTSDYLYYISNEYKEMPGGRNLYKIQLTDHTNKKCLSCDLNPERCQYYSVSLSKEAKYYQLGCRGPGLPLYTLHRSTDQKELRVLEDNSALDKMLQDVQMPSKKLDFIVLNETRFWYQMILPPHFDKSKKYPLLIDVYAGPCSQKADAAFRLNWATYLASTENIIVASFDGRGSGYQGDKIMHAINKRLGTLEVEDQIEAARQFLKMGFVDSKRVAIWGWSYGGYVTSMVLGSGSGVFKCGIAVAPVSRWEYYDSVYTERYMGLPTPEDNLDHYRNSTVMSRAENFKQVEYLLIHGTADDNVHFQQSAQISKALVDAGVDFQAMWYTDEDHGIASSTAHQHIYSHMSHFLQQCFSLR
T2 sequence (P28843 whole entry): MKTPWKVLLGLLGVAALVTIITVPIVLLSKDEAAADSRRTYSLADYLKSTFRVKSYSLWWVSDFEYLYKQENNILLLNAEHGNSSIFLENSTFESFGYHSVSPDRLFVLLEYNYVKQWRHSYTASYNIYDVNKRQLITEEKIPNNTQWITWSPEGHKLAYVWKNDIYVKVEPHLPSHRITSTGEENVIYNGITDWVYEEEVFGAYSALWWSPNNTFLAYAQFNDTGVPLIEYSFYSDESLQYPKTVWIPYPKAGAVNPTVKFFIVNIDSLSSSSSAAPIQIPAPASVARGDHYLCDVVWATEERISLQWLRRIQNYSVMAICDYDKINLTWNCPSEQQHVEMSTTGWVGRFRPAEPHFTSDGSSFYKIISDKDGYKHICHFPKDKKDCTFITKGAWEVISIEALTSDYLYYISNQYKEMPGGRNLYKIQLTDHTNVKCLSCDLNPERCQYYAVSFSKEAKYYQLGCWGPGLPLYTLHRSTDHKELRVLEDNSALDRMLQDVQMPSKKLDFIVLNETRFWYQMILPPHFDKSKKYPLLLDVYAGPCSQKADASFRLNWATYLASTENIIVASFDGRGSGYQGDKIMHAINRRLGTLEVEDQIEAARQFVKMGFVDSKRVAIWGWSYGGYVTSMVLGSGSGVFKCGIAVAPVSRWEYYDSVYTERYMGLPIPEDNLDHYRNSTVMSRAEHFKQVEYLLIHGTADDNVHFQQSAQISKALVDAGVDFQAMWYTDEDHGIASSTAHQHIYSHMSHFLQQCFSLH

For `CC(C)N1CCC(c2ccccc2)(c2ccccc2)CC1` [Prodipine, Pro-Pro-diphenyl-phosphonate], which cardiac allograft survival [1] is on record?
Its cardiac allograft survival is 14 day.

With `CC(C)[C@H](N)C(=O)N1CCC[C@H]1B(O)O` [Val-Boro-Pro] as the compound, how does the hematopoiesis [2] read?
Its hematopoiesis is “stimulated hematopoiesis”.

For `CC[C@H](C)[C@H](N)C(=O)N1CCC[C@H]1C(=O)N[C@H](C(=O)O)[C@@H](C)CC` [diprotin A], which “degradation of GRF to GRF[3-44] in plasma” value [3] is on record?
Its value is “prevented”.
